Reference: PubChem BioAssay (NCI)
“And” between values parts separate entries of the source, which are not always exact repeats. Equal entries are not always repeated.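 Dose response: 5 concentrations. Exposure: 48 h. Format: 96-well plates. Endpoint: linear interpolation; highest concentration if not reached. Abbreviation: GI50, concentration required for 50% inhibition of growth. Definition used: TGI = concentration required for complete inhibition of growth.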

Tests used:
Assay in all cases: NCI tumour cell line growth inhibition, 48 h
[1] = tested on: MDA-N
[2] = tested on: DMS 114 small cell lung
[3] = tested on: DMS 273 small cell lung
[4] = tested on: HOP-18 NSCLC
[5] = tested on: KM20L2 colon
[6] = tested on: LXFL 529 NSCLC
[7] = tested on: SNB-78 CNS
[8] = tested on: XF 498 CNS
[9] = tested on: RXF-631 renal
[10] = tested on: P388 leukemia
[11] = tested on: P388/ADR leukemia
[12] = tested on: SN12K1 renal

Compound	TGI [2] [µM]	TGI [3] [µM]	TGI [4] [µM]	TGI [5] [µM]	TGI [6] [µM]	TGI [7] [µM]	TGI [8] [µM]	TGI [9] [µM]	further results
O=c1cc(N=Nc2ccc(O)cc2)[nH]c(=O)[nH]1	–	–	–	–	–	–	–	–	TGI [1]: > 100 µM
CCC(/C=C/c1ccccc1)=N\Nc1ccc(Cl)c(Cl)c1	–	–	–	–	–	–	–	–	TGI [1]: > 100 µM
CC#CC1C(OC(=O)c2ccccc2)CCCC1(CI)N=[N+]=[N-] (stereo not given)	99.2	> 100	> 100	> 100	> 100	> 100	78.7	–	–
C=CC1C(OC2OC(CO)C(O)C(O)C2O)OC=C(C(=O)OC)C1CC=O (stereo not given)	–	–	> 100	> 100	> 100	> 100	–	> 100	–
N#Cc1cc([N+](=O)[O-])ccc1NC(=O)/C(=N/N)C(C(=O)c1ccc(Cl)c(Cl)c1)C1OC(=O)c2ccccc21 (stereo not given)	> 100	–	–	–	> 100	> 100	–	–	–
CN(C)c1ccc(C(=C2C=CC(=[N+](C)C)C=C2)c2ccc(N(C)C)cc2)cc1	–	1.15	–	0.938	1.03	5.67	0.193	–	–
CC(=O)Nc1ccc(/C=C/C(=O)c2sc(-c3nc(C)c(C(=O)/C=C/c4ccc(NC(C)=O)cc4)s3)nc2C)cc1	> 100	> 100	–	> 100	> 100	> 100	> 100	> 100	–
COC(=O)C1=C(O)c2cc3c(cc2[C@H](c2cc(OC)c(OC)c(OC)c2)C1C(=O)OC)OCO3 (stereo not given in full)	68.8	> 100	89.4	> 100	> 100	> 100	70	> 100	–
CCOC(=O)C1=C(Nc2cccc3ccccc23)OC/C1=N\NC(=O)c1ccccc1O	31.6	> 61.1	83.7	90.8	> 100	–	30.7	> 100	–
COC(=O)C1=C(C(=O)OC)SC(=C(N=Nc2ccccc2)c2ccccc2)S1	–	> 100	> 100	> 100	> 100	> 100	–	> 100	–
O=c1[nH]c(-c2ccc(-c3nc4cc([N+](=O)[O-])ccc4c(=O)[nH]3)cc2)nc2cc([N+](=O)[O-])ccc12	> 100	> 100	–	> 100	> 100	> 100	–	> 100	–
CC12CC(OC(=O)[C@]1(C)O)[C@@H]([C@]1(O)CC[C@H]3[C@@H]4C[C@H]5O[C@]56[C@@H](O)C=CC(=O)[C@]6(C)[C@H]4CC[C@@]31C)C2 (stereo not given in full)	–	–	–	–	–	–	–	–	TGI [1]: 26.9 µM
O=C1NC2C=CN(Cc3ccccc3)C=C2C(=O)N2CCCC12 (stereo not given)	> 100	> 100	> 100	> 100	> 100	> 100	> 100	> 100	–
CCC(=O)N(O)C(C)(C)C	> 100	–	–	> 100	> 100	> 100	–	–	–
C/C=C/C=C/CCCCCCCCCCCCCC1(OC)C=CC(CC(=O)OC)OO1 (stereo not given)	–	3.03	–	3.51	16.7	–	15.8	29.1	GI50 [5]: 1.89 µM; GI50 [6]: 4.7 µM; GI50 [9]: 10.8 µM; GI50 [8]: 6.59 µM
COc1cc(C)c(O)c(C(=O)O)c1	> 100	> 100	> 100	> 100	> 100	> 100	> 100	–	–
Cc1ccc(Sc2ccc(C)cc2[N+](=O)[O-])c([N+](=O)[O-])c1	> 100	> 100	> 100	> 100	> 100	> 100	> 100	–	–
C=C1CCC2[C@@H](CCC3[C@]2(C)CCC[C@]3(C)C(=O)OC)C1CCO (stereo not given in full)	20.3	24.9	29.9	22.8	21	36.3	22.6	–	–

Compound	TGI [2] [µM]	TGI [3] [µM]	TGI [4] [µM]	TGI [5] [µM]	TGI [6] [µM]	TGI [7] [µM]	TGI [8] [µM]	TGI [9] [µM]	further results
CC(=O)NC1CC2Oc3ccc(C)cc3C(C)(O2)C1O (stereo not given)	> 100	> 100	> 100	–	–	–	> 100	–	–
CCN(CC)CC(C(=O)Nc1c(C)cccc1C)/C(C)=N\NC(=O)c1ccncc1 (stereo not given)	> 100	> 100	> 100	–	> 100	> 100	> 100	> 100	–
COc1cc(/C=C/C(=O)c2sc(NNC(C)=O)nc2C)ccc1O	> 100	> 100	> 100	> 100	–	> 100	–	> 100	–
C=CCNC(=O)NCCCC(NC(C)=O)C(=O)NCc1ccccc1 (stereo not given)	–	> 100	> 100	> 100	> 100	–	> 100	> 100	–
Clc1nc(Cl)c(-c2ccccc2)c(Cl)n1	–	–	–	–	–	–	–	–	TGI [1]: 6.67 µM
O=C(CCc1cc(-c2ccccc2)nc(=S)[nH]1)Nc1ccccc1[N+](=O)[O-]	> 100	> 100	> 100	> 100	> 100	> 100	91.5	> 100	–
O=C1CCC2(c3ccccc3)Nc3ncccc3N12 (stereo not given)	> 100	–	–	> 100	> 100	> 100	> 100	–	–
CCOC(=O)c1nc(-c2ccccc2)oc1OCC	> 100	> 100	> 100	> 100	> 100	> 100	> 100	–	–
Nc1nc(N)c(N=O)c(OCC2CCCCC2)n1	–	–	–	–	–	–	–	–	TGI [1]: 67.4 µM
CS/C(=N\c1nccs1)NC(=O)c1cccc(Cl)c1	> 100	> 100	> 100	> 100	> 100	> 100	–	> 100	–
OCC1OC(n2cnc3c(=S)nc[nH]c32)C(O)C1O (stereo not given)	2490	> 2310	> 2500	> 2500	–	> 2500	> 1400	–	TGI [1]: > 2500 µM; TGI [10]: > 2500 µM; TGI [11]: > 2500 µM; TGI [12]: > 2500 µM
O=C(Nc1nc(=S)c2c(ncn2CCO)[nH]1)c1ccccc1	> 100	> 100	> 100	> 100	> 100	> 100	> 100	–	–
O=C1c2ccccc2CC1C1(O)C(=O)Nc2ccccc21 (stereo not given)	> 100	> 100	–	> 100	> 100	> 100	> 100	> 100	–
c1ccc(CSc2nnc3c4ccccc4c4ccccc4c3n2)cc1	–	–	–	–	–	–	–	–	TGI [1]: > 100 µM
COC(=O)c1cc(-c2cccn2C)c2c(c1C(=O)OC)c1ccccc1n2C	> 100	> 100	> 100	–	> 100	> 100	> 100	> 100	–
c1ccc(P(CCP(CCP(c2ccccc2)c2ccccc2)c2ccccc2)CCP(c2ccccc2)c2ccccc2)cc1 (stereo not given)	–	–	–	–	–	–	–	–	GI50 [1]: > 10 µM and 3.35 µM; TGI [1]: > 10 µM
CCCC(Sc1ccccc1)P(=O)(c1ccccc1)c1ccccc1 (stereo not given)	> 100	> 100	–	> 100	–	> 100	–	94.7	–
